Source: patent publication US20160375006A1, “USES OF PARALOG-SELECTIVE INHIBITORS OF GSK3 KINASES” (priority 2012, published 2016)
Converted amounts (≈) assume the structure as drawn. “Also recorded” adds a separate entry of the source. Like-named read-outs stand apart in the source and are kept apart here.

How the values were obtained:
phospho-Tau (Ser199) = assay: Tau phosphorylation (Ser199) ELISA in SH-SY5Y cells; type: cell-based; conditions: Homo sapiens, read-out: p-Tau Inhibition ELISA EC50 SH-SY5Y
Protocol: SH-SY5Y cells were maintained in DMEM supplemented with 10% heat-inactivated FBS and 1% penicillin-streptomycin (Invitrogen) unless otherwise stated. ELISA kits for phospho-Tau (Ser199) and total Tau detection were purchased from Invitrogen (KHB0041, and KHB7041 respectively). Briefly, SH-SY5Y cells were seeded at 50,000 cells/200 μL/well in 96 well plates and after overnight incubation, treated with various doses of chemical compounds at 0.2 μL/well. The next day cells were washed with PBS twice before being lysed in 100 μL Lysis buffer/well. 50 μL of cell lysate of each sample was transferred to an ELISA vial coated with the capture antibody, and the mixture was incubated at room temperature for 2 hours, before the supernatant was aspired, and each vial washed four times. 100 μL of detection antibody was then added to each well, incubated for 1 hour, and then washed four times. […] Data were scaled using the positive and neutral controls and fitted for IC50.
A standard protocol using an immunoassay kit to quantify total Tau protein and phospho-Tau (Ser199) protein in SH-SY5Y human neuroblastoma cells was employed. Human Tau (Total) ELISA kit (#KHB0041) and human phosphor-Tau (Ser199) ELISA kit were purchased from Invitrogen (#KHB7041)
50,000 cells were seeded in 200 μl per well in cell culture media (250,000 cells/ml). Cells were incubated overnight @ 37° C. Cells were induced with appropriate doses of inhibitors and incubated for approximately 24 hrs @ 37° C. Cell lysates were harvested by washing cells once with cold PBS and adding 100 μl cold lysis buffer and pipette up and down vigorously. Lysate was transferred to 96 well PCR plate and centrifuged at 4,000 rpm for 20 minutes at 4° C.
Well strips were warmed and inserted into the frame. 100μ of standard diluent buffer were loaded into ZERO wells, and 100 ul of each standard concentrations (both total Tau and pTau) were loaded into wells in duplicate. Samples were loaded to each well that would be analyzed for total Tau, 85 μl standard diluent buffer and 15 μl cell lysate were added. To each well that will be analyzed for pTau (Ser199) 50 μl standard diluent buffer+50 μl cell lysate were added. Plates were tapped gently on the side to mix. Certain wells were left empty for chromogen blank. Plates were covered and incubated for 2 hours at room temperature. Wells were aspirated 4 times (400 μl diluted wash buffer, left for 30 seconds, aspirated all wells; alternatively used automated plate washer and programmed in a 30 second hold between each cycle). 100 μl of detection antibody solution were added to each well except chromogen blanks. Anti-total Tau was added to wells being analyzed for total Tau, anti-pTau (Ser199) was added to wells being analyzed for pTau (Ser199), and plates were tapped gently on the side to mix. Plates were covered and incubated for 1 hour at room temperature, then wells were aspirated and washed 4 times as described above. 100 μl of anti-rabbit IgG HRP working solution (prepared ahead) were added to each well except chromogen blanks, and plates were covered and incubated for 30 minutes at room temperature, then wells were aspirated and washed 4 times as described above. 100 μl of stabilized chromogen were added to each well (the liquid turned blue). Plates were incubates for 30 minutes at room temperature in the dark, then 100 μl of stop solution were added to each well, and plates were tapped gently on the side to mix. Absorbance of each well was read at 450 nm (within 2 hours of adding stop solution).

GSK3β [1] = molecular target: T1, GSK3β (Homo sapiens, UniProt P49841); conditions: GSK3β over GSK3α
[2] = test system: amphetamine-induced hyperactivity; assay: Amphetamine-induced hyperactivity (AIH) in mice; type: in vivo, mouse; conditions: versus vehicle
AML cell lines = assay: May-Grunwald Giemsa morphology of AML cell lines; type: cell-based; conditions: three days after treatment
Protocol: On day three post-chemical treatment, cytospin preparations were performed. Changes in cellular morphology were evaluated by May-Grunwald Giemsa staining (Sigma Aldrich). Images were acquired by light microscopy at 400× magnification.

HL-60 and U937 cells = assay: GE-HTS 32-gene myeloid differentiation signature; type: cell-based; conditions: three days
Excerpt: This assay uses ligation-mediated amplification with a fluorescent bead-based detection system to quantify the expression of up to 500 genes in a single well. Two primary scoring methods are used to quantify induction of the 32-gene myeloid differentiation signature. The Summed Score combines expression ratios (marker gene/control gene) by summing them with a sign determined by the expected direction of regulation from ATRA-treated positive controls. The Weighted Summed Score combines expression ratios by summing them with a weight and sign determined by the signal-to-noise ratio of each expression ratio for the positive control (ATRA-treated) and negative control (DMSO-treated) samples. To assess the statistical significance of the differences between these differentiation scores a one-way ANOVA with a Bonferroni correction as a post-hoc test was employed.

[3] = Pharmacokinetics and brain distribution in male C57BL/6 mice; conditions: single i.p. dose 30 mg/kg (CHIR99021 12.5 mg/kg)
[4] = for Mouse microsomes, % remaining: after 1 hour; for Microsomal stability 60 min: in mice
human iPSC-NPCs = assay: Neurogenesis assay (TCF/LEF-luciferase in human iPSC-NPCs); type: cell-based; conditions: 24-h treatment
Protocol: Human neuroprogenitor cells were generated and derived according to methods known in the art. […] Single-cell suspensions were prepared from the human iPSC-NPCs, stably integrated with the TCF/LEF-luciferase reporter, and dispensed into 96- or 384-well plates at the seeding densities of 20,000 or 6,000 per well, respectively, using a Matrix WellMate (Thermo Scientific) microplate dispenser. A 96-well plate format was used for measuring Wnt3a and lithium (lithium chloride solution, 10 M; Fluka, St. Louis, Mo.) dose-response effects, whereas a 384-well plate format was used for all small-molecule probe treatments and chemical screening. The next day, cells were subjected to various 24-h treatments. Just prior to the luminescence reading, the plates were taken out of a 37° C. incubator and equilibrated to room temperature for 30 min before the SteadyGlo reagent (Promega, Madison, Wis.) was dispensed (volume equal 1:1 SteadyGlo:culture medium). Luminescence was measured after a 10-min incubation using an EnVision multilabel plate reader (PerkinElmer, Waltham, Mass.).

GSK3β [5] = molecular target: T1, GSK3β; assay: Mechanism of action: ATP competition at GSK3β (Lineweaver-Burk, IC50 at two ATP concentrations); type: biochemical; conditions: versus ATP
Protocol: . IC50s were measured against GSK3β at two different ATP concentrations. […]

[6] = test system: β-catenin nuclear translocation; assay: β-Catenin nuclear localization assay in U2-OS cells; type: cell-based; conditions: Homo sapiens, U2OS, read-out: beta-Catenin translocation EC50
Protocol: U2-OS cells stably expressing two complimentary β-galactosidase fragments (one part on β-Catenin and the other constitutively expressed in the cell nucleus) were maintained in DMEM F12 supplemented with 10% FBS. When β-catenin translocates to the nucleus, the complimentary fragments form a complete β-galactosidase, the amount of which is then quantified by β-galactosidase activity (DiscoveRx). Cells were seeded in a 384-well CulturPlate (Perkin Elmer, Boston, Mass.) with 10,000 per well in 20 μL DMEM F12 containing 10% FCS, 100 U/ml penicillin and 100 m/mL streptomycin. After overnight incubation at 37° C., cells were stimulated with 100 nL test compound/well and then returned to the incubator for 6 h. Cells were disrupted using 12 μL substrate-containing lysis buffer from the PathHunter Detection Kit in the formulation specified by the supplier (DiscoveRx). Plates were incubated in the dark for 1 h at room temperature before measurement of β-galactosidase activity (luminescence) on an EnVision plate reader (PerkinElmer, Waltham, Mass.). Distance between plate and detector was 0.2 mm. Measurement time(s)=0.1; Glow (CT2) correction factor=0.

TCF/LEF reporter = assay: cells; conditions: Homo sapiens, HEK293, read-out: TCF/LEF EC50, HEK293 cells
Protocol: HEK293-pBARL cells were derived from HEK293 cells and they stably expressed a firefly-luciferase reporter gene driven by a promoter containing 12 copies of TCF/LEF binding sequences. These cells were maintained in DMEM and supplemented with 10% FBS and 1% penicillin-streptomycin (Invitrogen). Reporter gene assays were conducted in anti-biotic free media. […] These cells also contained a renilla-luciferase reporter gene driven by the ubiquitous EF1α promoter as a control. HEK293-pBarl reporter cell lines were seeded into 384-well culture plates (Corning) at 6000 cells/well. 24 hours after plating, cells were treated overnight with relevant compounds and assayed using DualGlo assay kit (Promega). Luminescent intensities were read by EnVision (PerkinElmer, Waltham, Mass.). Firefly luciferase intensity is normalized by renilla luciferase intensity.
Cells were cultured in 384 well plates to appropriate density (40 μl total plating volume). 24 hours after plating, cells were treated with 100 nl compounds. 24 hours after incubation with compounds (48 hours after plating), assay reagents were prepared by mixing Luciferase Assay solution with Luciferase substrate and Stop & Glo solution to Stop & Glo substrate (extra reagents can be aliquoted and frozen for future use and are stable for at least one freeze/thaw cycle). […] The plate was spun down and 10 minutes were allowed for signal stabilization. Luciferase signal on the Perkin Elmer EnVision using the following parameters: Distance between plate & detector (mm)=0.2; Measurement time(s)=0.1; Glow (CT2) correction factor=0. Once the initial data is secure, a volume of Stop & Glo was added equal to each well equal to the volume of Luciferase reagent added above (If 10 μl Luciferase Reagent was added, 10 μl Stop & Glo was also added). The plate was spun down and 10 minutes were allowed for signal stabilization. The plate was read on the EnVision using the same parameters detailed above.

GSK3β [7] = molecular target: T1, GSK3β; assay: biochemical
Protocol: 100 nL/well compounds were pinned. […] Incubated at room temperature for 60 minutes. Added 20 μL/well of ADP-glo (Promega, V9103) with Combi, and incubated at room temperature for 40 minutes. Added 40 μL/well of ADP-glo (Promega, V9103) with Combi, incubated at room temperature for 30 minutes. Read on Envision for luminescence.

GSK3β [8] = molecular target: T1, GSK3β; assay: biochemical; remark: listed apart in the source
GSK3α [9] = molecular target: T2, GSK3α (Homo sapiens, UniProt P49840); assay: biochemical
Protocol: (§2) Reactions were terminated by the addition of 10 mM EDTA. Substrate and product were separated electrophoretically and fluorescence intensity of the substrate and product was determined by Labchip EZ Reader II (Caliper Life Sciences, MA). The kinase activity was measured as percent conversion. The reactions were performed in duplicate for each sample. […] The results were analyzed by Genedata Assay Analyzer. The percent inhibition was plotted against the compound concentration and the IC50 value was determined from the logistic dose-response curve fitting.

GSK3α [10] = molecular target: T2, GSK3α; conditions: for IC50: read-out: Caliper Assay, GSK3α IC50; for GSK3α fold selectivity: GSK3α over GSK3β
Protocol: as §2

PBS stability = type: physicochemical
Protocol: (§1) Stability was determined in the presence of PBS pH 7.4 with 0.1% DMSO. Each compound was prepared in duplicate on six separate plates and allowed to equilibrate at room temperature with a 250 rpm orbital shake for 48 hours. One plate was removed at each time point (0, 2, 4, 8, 24, and 48 hours). […] Additionally, to the remaining material at each time point, acetonitrile was added to force dissolution of compound (to test for recovery of compound). An aliquot of this was also analyzed by UPLC-MS.

GSH stability = type: physicochemical; conditions: after 48 hours
Protocol: as §1, with “[…] and 50 μM glutathione” for “7.4”

[11] = in mice (mouse plasma), 5 hours
in vitro = conditions: mouse, plasma, pH 7.4
Protocol: Plasma protein binding was determined by equilibrium dialysis using the Rapid Equilibrium Dialysis (RED) device (Pierce Biotechnology, Rockford, Ill.) for both human and mouse plasma. […] Compounds were incubated at 37° C. for 5 hours with a 250 rpm orbital shake.

T1 sequence (P49841 whole entry): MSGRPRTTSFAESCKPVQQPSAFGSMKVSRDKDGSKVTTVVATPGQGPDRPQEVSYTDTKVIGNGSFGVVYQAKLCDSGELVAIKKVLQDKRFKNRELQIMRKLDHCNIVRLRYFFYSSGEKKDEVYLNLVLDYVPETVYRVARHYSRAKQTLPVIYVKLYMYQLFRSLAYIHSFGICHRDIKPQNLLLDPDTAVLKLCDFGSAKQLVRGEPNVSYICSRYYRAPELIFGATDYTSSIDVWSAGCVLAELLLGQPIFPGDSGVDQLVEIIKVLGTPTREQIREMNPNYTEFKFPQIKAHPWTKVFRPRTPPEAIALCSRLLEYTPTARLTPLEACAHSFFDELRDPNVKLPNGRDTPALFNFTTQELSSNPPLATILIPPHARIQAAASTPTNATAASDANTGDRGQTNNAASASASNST
T2 sequence (P49840 whole entry): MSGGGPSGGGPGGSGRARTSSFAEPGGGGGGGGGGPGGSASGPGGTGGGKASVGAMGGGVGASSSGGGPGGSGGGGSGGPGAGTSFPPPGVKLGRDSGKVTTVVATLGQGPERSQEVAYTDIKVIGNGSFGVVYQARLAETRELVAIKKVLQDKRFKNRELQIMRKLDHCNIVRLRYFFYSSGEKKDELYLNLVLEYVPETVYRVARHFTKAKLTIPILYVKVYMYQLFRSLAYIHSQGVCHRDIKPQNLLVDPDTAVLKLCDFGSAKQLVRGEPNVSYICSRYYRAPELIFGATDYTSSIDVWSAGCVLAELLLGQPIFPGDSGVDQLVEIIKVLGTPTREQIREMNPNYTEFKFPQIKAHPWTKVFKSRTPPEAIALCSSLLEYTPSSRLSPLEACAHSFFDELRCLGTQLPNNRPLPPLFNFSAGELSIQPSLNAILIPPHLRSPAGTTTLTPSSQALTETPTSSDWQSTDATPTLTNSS
Protocol for panel of 311 kinases: Briefly, a selection of compounds was screened against a panel of kinases at a single concentration of 10 μM. […] This was completed utilizing one of two assays depending on the kinase being examined.
Test compounds were dissolved in and diluted with dimethylsulfoxide (DMSO) to generate a 100× sample solution. These were then diluted to 4× sample solutions in assay buffer to make the final test compound solutions. Reference compounds for assay control were prepared similarly.
A solution of IMAP binding reagent (IMAP Screening Express kit; Molecular Devices) (60 μL) was added to each well and incubated for 30 minutes.
A solution of termination buffer (QuickScout Screening assist MSA; Carna Biosciences) (60 μL) was added to each well. The entire reaction mixture was then applied to a LabChip3000 system (Caliper Life Science) and the product and substrate peptide peaks were separated and quantified.
Protocol for physchem: Solubility was determined in phosphate buffered saline (PBS) pH 7.4 with 1% DMSO. Each compound was prepared in duplicate at 100 μM in both 100% DMSO and PBS with 1% DMSO. Compounds were allowed to equilibrate at room temperature with a 250 rpm orbital shake for 24 hours.

Structure (SMILES)	EC50 (phospho-Tau (Ser199))	EC50 [6]	EC50 (TCF/LEF reporter)	IC50 (GSK3β [7])	IC50 (GSK3β [8])	IC50 (GSK3α [9])	further results
CC1(C)CC(=O)C2=C(C1)Nc1n[nH]c(C(F)(F)F)c1C2(C)c1ccccc1 (racemic) [Compound 68]	1.58 µM						GSK3β fold selectivity (GSK3β [1]): 2.9 fold
CC1(C)CC(=O)C2=C(C1)Nc1n[nH]c(C(F)(F)F)c1C2(C)c1ccccc1 (racemic) [Compound 70, 4,7,7-trimethyl-4-phenyl-3-(trifluoromethyl)-6,7,8,9-tetrahydro-2H-pyrazolo[3,4-b]quinolin-5(4H)-one]							Amphetamine-induced hyperactivity, i.p. ([2]; systemic intraperitoneal injection): attenuate amphetamine-induced hyperactivity; Morphological AML differentiation (May-Grunwald Giemsa) (AML cell lines): induces morphological evidence of AML (acute myeloid leukemia) differentiation; Morphological AML differentiation (May-Grunwald Giemsa) (AML cell lines; listed as compound 70): demonstrated cellular differentiation; AML differentiation by GE-HTS signature (HL-60 and U937 cells): induces AML (acute myeloid leukemia) differentiation by GE-HTS signature; also recorded: induced a gene expression signature in AML cell lines consistent with myeloid differentiation; GSK3β fold selectivity (GSK3β [1]): 5 fold; Pharmacokinetic profile (systemic exposure, brain distribution) compared to CHIR99021 [3]: improved pharmacokinetic profile
COc1ccccc1C1C2=C(CC(C)(C)CC2=O)Nc2n[nH]c(C(F)(F)F)c21 (racemic) [racemic probe, 4-(2-methoxyphenyl)-7,7-dimethyl-3-(trifluoromethyl)-6,7,8,9-tetrahydro-2H-pyrazolo[3,4-b]quinolin-5(4H)-one]							Mouse microsomes, % remaining [4]: < 1%
Cc1c[nH]c(-c2cnc(NCCNc3ccc(C#N)cn3)nc2-c2ccc(Cl)cc2Cl)n1 [CHIR99021, reference compound]							Number of kinases inhibited greater than 50% at 10 μM (panel of 311 kinases; panel of 311 kinases, 10 μM): 21
COc1ccccc1[C@@H]1C2=C(CC(C)(C)CC2=O)Nc2n[nH]c(C)c21 [Compound 22]							Amphetamine-induced hyperactivity, ICV ([2]; intracerebroventricular injection): attenuate amphetamine-induced hyperactivity; Neurogenesis (human iPSC-NPCs): promoted neurogenesis; Mode of inhibition of GSK3β (GSK3β [5]): competitive inhibition
Cc1[nH]nc2c1C(C)C1=C(CC(C)(C)CC1=O)N2 (stereo not shown) [Compound 42]		> 50 µM	> 25 µM	1 to 5 µM	0.101 to 1 µM	0.101 to 1 µM	
Cc1[nH]nc2c1C(C1CC1)C1=C(CC(C)(C)CC1=O)N2 (stereo not shown) [Compound 43]	> 30 µM	> 50 µM	> 25 µM	1 to 5 µM	1 to 5 µM	1 to 5 µM	
COc1ccccc1C1C2=C(CCC(C)(C)C2=O)Nc2n[nH]c(C)c21 (stereo not shown) [Compound 45]		> 50 µM	> 25 µM	0.101 to 1 µM	0.101 to 1 µM	0.101 to 1 µM	
COc1ccccc1C1C2=C(CCCC2=O)Nc2n[nH]c(C)c21 (stereo not shown) [Compound 46]		> 50 µM	> 25 µM	1 to 5 µM	0.101 to 1 µM	0.101 to 1 µM	
CCc1[nH]nc2c1C(c1ccccc1OC)C1=C(CC(C)(C)CC1=O)N2 (stereo not shown) [Compound 48]		24.6 µM	16.2 µM	0.101 to 1 µM			IC50 (GSK3α [10]): < 0.1 µM
COc1ccccc1C1C2=C(CC(C)(C)CC2=O)Nc2n[nH]c(C(C)C)c21 (stereo not shown) [Compound 49]		> 50 µM	> 25 µM	0.101 to 1 µM		0.101 to 1 µM	
COc1ccccc1C1C2=C(CC(C)(C)CC2=O)Nc2n[nH]c(C(C)(C)C)c21 (stereo not shown) [Compound 50]		> 50 µM	> 25 µM	0.101 to 1 µM	0.101 to 1 µM	1 to 5 µM	
COc1ccccc1C1C2=C(CC(C)(C)CC2=O)Nc2n[nH]c(-c3ccccc3)c21 (stereo not shown) [Compound 51]		> 50 µM	> 25 µM	1 to 5 µM	0.101 to 1 µM	0.101 to 1 µM	
CC1(C)CC(=O)C2=C(C1)Nc1n[nH]c(C(F)(F)F)c1C2c1ccccc1 (stereo not shown) [Compound 52]	0.507 µM	13.1 µM	9.32 µM				IC50 (GSK3α [10]): < 0.1 µM
COc1ccccc1[C@@H]1C2=C(CC(C)(C)CC2=O)Nc2n[nH]c(C(F)(F)F)c21 [Compound 54, (R)-4-(2-methoxyphenyl)-7,7-dimethyl-3-(trifluoromethyl)-6,7,8,9-tetrahydro-2H-pyrazolo[3,4-b]quinolin-5(4H)-one]							recovery at 48 h (PBS stability; PBS, pH 7.4, after 48 hours of incubation, read-out: PBS stability, % still present (acetonitrile recovery)): > 95%; Concentration in PBS (0.1% DMSO) over time (PBS stability; over 48 hours, reflects kinetic solubility): about 200%; Glutathione (GSH) stability, % remaining (GSH stability): 99%; Mode of inhibition of GSK3β (GSK3β [5]): ATP-competitive inhibition; Plasma stability % remaining [11]: 99%; Microsomal Stability ([4]; M): M: 0%; Percent of the kinome (311 kinases) inhibited (panel of 311 kinases): 2.6%
COc1ccccc1C1C2=C(CC3(CCCCC3)CC2=O)Nc2n[nH]c(C)c21 (stereo not shown) [Compound 56]		> 50 µM	> 25 µM	0.101 to 1 µM	0.101 to 1 µM	0.101 to 1 µM	
CC1(C)CC(=O)C2=C(C1)Nc1n[nH]c(C(F)(F)F)c1C2c1ccccc1C(F)(F)F (stereo not shown) [Compound 62]	0.652 µM	4.23 µM	3.93 µM				
CC1(C)CC(=O)C2=C(C1)Nc1n[nH]c(C(F)(F)F)c1C2c1cccc(F)c1C(F)(F)F (stereo not shown) [Compound 63]	1.38 µM	3.34 µM	4.83 µM				IC50 (GSK3α [10]): < 0.1 µM
Cc1[nH]nc2c1C(C)(c1ccccc1)C1=C(CC(C)(C)CC1=O)N2 (stereo not shown) [Compound 67]							GSK3α fold selectivity (GSK3α [10]): 5.2 fold; Mouse microsomes, % remaining [4]: 32%; Microsomal stability 60 min [4]: 32
CC1(C)CC(=O)C2=C(C1)Nc1n[nH]c(C(F)(F)F)c1C2(C)c1ccccc1F (stereo not shown) [Compound 69]	2.41 µM		20.8 µM		< 0.1 µM		GSK3α fold selectivity (GSK3α [10]): 1.7 fold; IC50 (GSK3α [10]): < 0.1 µM
CC1(C)CC(=O)C2=C(C1)Nc1n[nH]c(Br)c1C2c1ccccc1 (stereo not shown) [Compound 74]	2.09 µM		6.19 µM		< 0.1 µM		IC50 (GSK3α [10]): < 0.1 µM
CC1(C)CC(=O)C2=C(C1)Nc1n[nH]c(C(F)(F)F)c1C2c1cccnc1 (stereo not shown) [Compound 76]	2.09 µM		6.19 µM		< 0.1 µM	0.101 to 1 µM	
Cc1[nH]nc2c1C(c1ccccc1)(C(F)(F)F)C1=C(CC(C)(C)CC1=O)N2 (stereo not shown) [Compound 83]							IC50 (GSK3α [10]): < 0.1 µM; Microsomal stability 60 min [4]: 51.5; solubility (physchem): 410 µM (≈ 154 µg/mL); fraction unbound at 5 h, 5 μM (in vitro): 0.102
Cc1[nH]nc2c1C(C1CCCCC1)C1=C(CC(C)(C)CC1=O)N2 (stereo not shown) [compound 44]		> 50 µM	> 25 µM				
